The values that follow come from PubChem BioAssay (NCI).

Some test systems named below: MOLT-4 leukemia; NCI-H460 lung; TK-10 renal; MCF7 breast; CAKI-1 renal; SN12C renal; MALME-3M melanoma; OVCAR-5 ovarian; NCI-H23 lung; A549 NSCLC.
Common to all, as to experiment: inhibition of tumour cell growth, NCI panel, 48 h

Several values for one entry are separate records, joined by “and”; a condition that tells them apart may be missing. Equal entries are not always repeated.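 A five-concentration, 48-hour dose response in 96-well plates underlies each endpoint, interpolated linearly between surrounding concentrations. GI50 = concentration required for 50% inhibition of growth. TGI: concentration producing complete growth inhibition.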 Bounds are passed on as bounds.

In the case of `Cc1cc2c(cc1Cl)SC1=NN(C)C(C)N1S2(=O)=O` (stereo not given), the GI50 is 71 µM in the experiment with MOLT-4 leukemia; greater than 100 µM with NCI-H460 lung; greater than 100 µM in the experiment on TK-10 renal; 36 µM in the experiment with MCF7 breast; greater than 100 µM in the experiment on CAKI-1 renal; greater than 100 µM with SN12C renal. In addition, the GI50 in the experiment on MALME-3M melanoma, in the experiment on OVCAR-5 ovarian, in the experiment on NCI-H23 lung and in the experiment with A549 NSCLC was greater than 100 µM throughout. For the same molecule, the TGI in the experiment with MOLT-4 leukemia, in the experiment with NCI-H460 lung, in the experiment with TK-10 renal, in the experiment with MCF7 breast, in the experiment on CAKI-1 renal and with SN12C renal was greater than 100 µM each time. Further, the TGI in the experiment on MALME-3M melanoma, with OVCAR-5 ovarian, in the experiment with NCI-H23 lung and in the experiment with A549 NSCLC was greater than 100 µM each time.

Consider `Cc1cccc(/C=N/NC(=S)N2CCCC2)n1`, for which the TGI in the experiment on MOLT-4 leukemia is greater than 100 µM; in the experiment on NCI-H460 lung, greater than 42 µM; in the experiment on TK-10 renal, 1.35 µM; in the experiment on CAKI-1 renal it was 1.16 µM; with MALME-3M melanoma, 5.18 µM and 0.783 µM; with NCI-H23 lung, 13.4 µM. The molecule also gave a TGI with A549 NSCLC greater than 100 µM. Besides, the GI50 in the experiment on TK-10 renal was 4.82 µM; in the experiment with MCF7 breast, 0.169 µM; in the experiment with CAKI-1 renal it was 3.24 µM; with SN12C renal it was 0.719 µM; with MALME-3M melanoma, 1 µM; in the experiment with OVCAR-5 ovarian it was 2.41 µM. The GI50 with NCI-H23 lung is 0.401 µM; in the experiment on A549 NSCLC, 2.5 µM.

Regarding `Nc1ncnc2c1N=C(c1ccc3c(c1)OCO3)CC(c1ccc([N+](=O)[O-])cc1)N2` (stereo not given), the GI50 in the experiment with MOLT-4 leukemia is 23.7 µM; in the experiment on NCI-H460 lung, 76.3 µM; in the experiment with TK-10 renal it was 80.9 µM; in the experiment on MCF7 breast it was 31.5 µM; with CAKI-1 renal, 25.5 µM; in the experiment on SN12C renal, 82.6 µM. For the same molecule, the GI50 is 61.1 µM in the experiment on MALME-3M melanoma, greater than 100 µM in the experiment with OVCAR-5 ovarian, greater than 100 µM in the experiment with NCI-H23 lung and 69.7 µM in the experiment with A549 NSCLC. For the same molecule, the TGI in the experiment with MOLT-4 leukemia, with NCI-H460 lung, with TK-10 renal, in the experiment with MCF7 breast, with CAKI-1 renal and in the experiment with SN12C renal was greater than 100 µM in each case. The TGI in the experiment with MALME-3M melanoma, in the experiment on OVCAR-5 ovarian, in the experiment with NCI-H23 lung and in the experiment on A549 NSCLC was greater than 100 µM throughout.

`O=C1CCCCCCCCCCC1CN1CCCC1` (stereo not given): the TGI was greater than 100 µM in the experiment with MOLT-4 leukemia; greater than 100 µM with NCI-H460 lung; greater than 100 µM in the experiment on TK-10 renal; 50.3 µM in the experiment with MCF7 breast; greater than 100 µM with CAKI-1 renal; greater than 100 µM in the experiment on SN12C renal. Besides, the TGI with MALME-3M melanoma, in the experiment on OVCAR-5 ovarian, with NCI-H23 lung and with A549 NSCLC was greater than 100 µM in each case.

Take `Cn1ncnc1[C@H]1c2n[nH]c(=O)c3cc(F)cc(c23)N[C@@H]1c1ccc(F)cc1`: the GI50 is 5.07 µM in the experiment on MOLT-4 leukemia; 0.0354 µM with NCI-H460 lung; greater than 100 µM in the experiment on TK-10 renal; 0.701 µM in the experiment with MCF7 breast; 5.89 µM in the experiment with CAKI-1 renal; 3.26 µM in the experiment with SN12C renal. Moreover, the GI50 in the experiment with MALME-3M melanoma is greater than 100 µM; with OVCAR-5 ovarian, greater than 100 µM; with NCI-H23 lung it was greater than 34.5 µM; in the experiment with A549 NSCLC, 6.96 µM. Also, the TGI in the experiment with MOLT-4 leukemia, in the experiment with NCI-H460 lung, with TK-10 renal, with MCF7 breast, in the experiment with CAKI-1 renal and in the experiment with SN12C renal was greater than 100 µM each time. The TGI in the experiment with MALME-3M melanoma, with OVCAR-5 ovarian, in the experiment with NCI-H23 lung and with A549 NSCLC was greater than 100 µM throughout.

As to `CC1=C(C(=O)Nc2ccc3n[nH]c(C)c3c2)C(c2ccc(C(F)(F)F)cc2)CC(=O)N1` (stereo not given), the GI50 was 16.4 µM with MOLT-4 leukemia; 16.5 µM in the experiment on NCI-H460 lung; 14 µM with TK-10 renal; greater than 17.3 µM in the experiment on MCF7 breast; greater than 18.8 µM with CAKI-1 renal; greater than 25 µM in the experiment on SN12C renal. Moreover, the GI50 was 13.6 µM in the experiment with MALME-3M melanoma, 16.2 µM in the experiment on OVCAR-5 ovarian, greater than 17.6 µM with NCI-H23 lung and 18.5 µM in the experiment on A549 NSCLC. The TGI in the experiment with MOLT-4 leukemia, in the experiment on NCI-H460 lung, in the experiment with TK-10 renal, in the experiment on MCF7 breast, in the experiment with CAKI-1 renal and with SN12C renal was greater than 25 µM throughout. Further, the TGI with MALME-3M melanoma, in the experiment on OVCAR-5 ovarian, in the experiment with NCI-H23 lung and in the experiment with A549 NSCLC was greater than 25 µM each time.
